# In ChEMBL document CHEMBL1121937, “Stereochemical studies on medicinal agents. 25. Absolute configuration and analgetic potency of beta-1,2-dimethyl-2-phenyl-4-(propionyloxy)piperidine enantiomers” (J Med Chem, 1982):
# Key:
# [1] = molecular target: Opioid receptors; mu/kappa/delta (Homo sapiens, UniProt P41145+P41143+P35372); test: Ability to displace [3H]etorphine from Opioid receptors in guinea pig brain; parameters: species or system Cavia porcellus
# [2] = system: Mus musculus; test: Effective dose required for analgesic potency in the hotplate procedure after sc injection into mice.; assay type: functional
Compound,IC50 [1] [µM],ED50 [2] [mg/kg]
CCC(=O)OC1(c2ccccc2)CCN(C)C(C)C1 (racemic),2,0.52
"CCC(=O)O[C@@]1(c2ccccc2)CCN(C)C(C)C1 (single isomer, unassigned; (+))",11,5.5
CCC(=O)O[C@]1(c2ccccc2)CCN(C)[C@@H](C)C1,1.2,0.53
CCOC(=O)C1(c2ccccc2)CCN(C)CC1 [MEPERIDINE],–,1.3
CN1CC[C@]23c4c5ccc(O)c4O[C@H]2[C@@H](O)C=C[C@H]3[C@H]1C5 [MORPHINE],–,1.2
